The source of these data is article PMC8551122, “Characterization and Modeling of Thermostable GH50 Agarases from Microbulbifer elongatus PORT2” (Marine Biotechnology (New York, N.y.), 2021).

This assay deals with T1, AgaB50 (Microbulbifer elongatus, UniProt A0A516UX44).
T1 construct: full-length precursor 769 aa; 26 N-terminal residues (SPII lipoprotein signal peptide) deleted; N-terminal His6 tag; E. coli BL21 (DE3), pFO4; about 82 kDa
T1 sequence (A0A516UX44 1-743): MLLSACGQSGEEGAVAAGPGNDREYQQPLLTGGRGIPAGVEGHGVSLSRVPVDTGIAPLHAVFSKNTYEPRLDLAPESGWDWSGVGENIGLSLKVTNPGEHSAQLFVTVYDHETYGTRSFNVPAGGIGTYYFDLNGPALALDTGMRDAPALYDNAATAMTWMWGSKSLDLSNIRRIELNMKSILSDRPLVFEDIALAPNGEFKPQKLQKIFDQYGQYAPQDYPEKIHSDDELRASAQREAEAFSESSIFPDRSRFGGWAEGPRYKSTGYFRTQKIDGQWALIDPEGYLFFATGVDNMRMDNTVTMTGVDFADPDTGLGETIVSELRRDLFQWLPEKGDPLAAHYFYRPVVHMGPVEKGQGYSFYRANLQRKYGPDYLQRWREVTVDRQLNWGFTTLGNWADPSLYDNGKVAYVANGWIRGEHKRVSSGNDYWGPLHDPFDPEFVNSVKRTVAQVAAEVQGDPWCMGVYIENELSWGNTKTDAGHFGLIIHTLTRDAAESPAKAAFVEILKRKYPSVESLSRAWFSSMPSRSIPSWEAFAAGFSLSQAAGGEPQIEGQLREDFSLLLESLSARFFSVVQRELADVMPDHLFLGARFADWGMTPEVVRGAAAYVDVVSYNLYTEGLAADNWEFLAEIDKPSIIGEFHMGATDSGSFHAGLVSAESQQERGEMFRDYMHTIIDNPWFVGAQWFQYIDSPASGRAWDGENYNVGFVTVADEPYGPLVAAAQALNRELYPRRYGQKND
The assay is described as follows: HPLC-RID product analysis, end point. The class given is biochemical. The note with it: […] in ultrapure water, […] °C, overnight.

For the compound `OC[C@H]1O[C@@H](O[C@H]2[C@H]3OC[C@@H]2O[C@@H](O[C@H]2[C@@H](O)[C@@H](CO)O[C@@H](O[C@H]4[C@H]5OC[C@@H]4O[C@@H](O[C@H]4[C@@H](O)[C@@H](CO)O[C@@H](O[C@H]6[C@H]7OC[C@@H]6O[C@@H](O[C@H]6[C@@H](O)[C@@H](CO)OC(O)[C@@H]6O)[C@H]7O)[C@@H]4O)[C@H]5O)[C@@H]2O)[C@H]3O)[C@H](O)[C@@H](O[C@@H]2O[C@H]3CO[C@@H]([C@@H]2O)[C@@H]3O)[C@H]1O` (stereo partly shown) [NA8, neoagarooctaose], the “HPLC-RID product analysis, end point” value was “AgaB50 was able to convert larger NAOS such as NA8, NA6, and NA4”.
